Converted amounts (≈) assume the structure as drawn.
What was measured:
[1] = Cytotoxicity against mouse EAC cells; assay type: functional; conditions: Ehrlich, read-out: ED50 (the source's name)
[2] = Toxicity against mouse; assay type: organism-based; conditions: in vivo

Oc1cc(Br)c(Br)c2c1Oc1cc(Br)cc(Br)c1O2 [SPONGIADIOXIN A]
EC50 [1]: 29 µg/mL (≈ 56.2 µM)
LD50 [2]: > 150 mg/kg

Oc1c(Br)c(Br)cc2c1Oc1cc(Br)cc(Br)c1O2 [SPONGIADIOXIN B]
EC50 [1]: 15.5 µg/mL (≈ 30.1 µM)
LD50 [2]: > 150 mg/kg
